In US8394971B2, “Indole derivatives as selective androgen receptor modulators (SARMS)” (Janssen Pharmaceutica N.V., priority 2004, dated 2013):
Where “and” joins values, the source holds several entries; their conditions need not be identical. Identical values can stand only once.

Legend:
[1] = target: T1, androgen receptor (adenovirus AdEasy+rAR in COS-7 cells) (Rattus norvegicus, UniProt P15207); assay: COS-7 Whole-Cell Androgen Receptor Binding Assay, Adenovirus Transduction; settings: COS binding; 3000 nM unless otherwise noted
T1 construct: expressed in transfected cells
T1 sequence (P15207 1-902): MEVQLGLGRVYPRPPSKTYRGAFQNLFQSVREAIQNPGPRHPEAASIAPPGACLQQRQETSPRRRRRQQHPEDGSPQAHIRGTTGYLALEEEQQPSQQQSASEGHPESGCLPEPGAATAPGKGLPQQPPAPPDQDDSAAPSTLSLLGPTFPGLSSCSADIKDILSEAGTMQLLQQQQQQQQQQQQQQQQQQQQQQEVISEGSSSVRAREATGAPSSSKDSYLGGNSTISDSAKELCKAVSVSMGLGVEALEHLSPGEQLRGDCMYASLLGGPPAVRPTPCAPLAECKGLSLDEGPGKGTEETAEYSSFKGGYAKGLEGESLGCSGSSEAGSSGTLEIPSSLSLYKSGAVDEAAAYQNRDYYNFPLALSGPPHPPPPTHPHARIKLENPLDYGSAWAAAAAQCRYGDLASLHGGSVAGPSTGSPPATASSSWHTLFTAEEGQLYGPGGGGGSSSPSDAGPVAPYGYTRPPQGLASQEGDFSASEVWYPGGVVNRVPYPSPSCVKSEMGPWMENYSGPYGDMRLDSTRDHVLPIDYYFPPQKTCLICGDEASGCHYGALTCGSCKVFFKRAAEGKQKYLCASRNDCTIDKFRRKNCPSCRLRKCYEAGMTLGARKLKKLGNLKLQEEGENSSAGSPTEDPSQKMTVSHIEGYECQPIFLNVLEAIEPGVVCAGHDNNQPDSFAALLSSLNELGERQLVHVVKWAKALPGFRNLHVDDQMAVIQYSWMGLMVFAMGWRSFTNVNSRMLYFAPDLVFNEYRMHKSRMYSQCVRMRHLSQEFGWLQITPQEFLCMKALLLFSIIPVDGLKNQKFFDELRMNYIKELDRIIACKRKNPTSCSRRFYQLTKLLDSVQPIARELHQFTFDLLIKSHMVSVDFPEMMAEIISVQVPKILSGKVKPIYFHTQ
Method: COS-7 cells were plated in 96-well plates at 20,000 cells per well, in a solution of DMEM/F12 (GIBCO) containing 10% (v/v) charcoal-treated fetal bovine serum (Hyclone) and lacking phenol red. The cells were then incubated overnight at 37° C. in 5% (v/v) humidified CO2.
Test compound solutions were prepared by diluting the test compound in 100% (v/v) DMSO, if necessary.
Next, 1 mL of DMEM/F12 lacking phenol red was pipetted into each of the wells of a 2-mL 96-well assay block. […] The wells were carefully mixed by pipette.
In a 15 mL or 50 mL sterile centrifuge tube, a dilution in DMEM/F12 of the adenovirus AdEasy+rAR at a moi of 1:50 per well was prepared.
The medium was removed from the 96-well plates by inversion and the plates dried very briefly, inverted, on a sterile towel. As soon as possible after medium removal, 40 μL of the diluted test compound was added to each well, in duplicate. […] The plates were then incubated for 48 hours at 37° C. in 5% (v/v) humidified CO2.
The medium was removed from the above incubated plates by inversion and dried. Each well was then washed with 0.35 mL of 1×PBS. The PBS was then removed from the plates by inversion and the plates dried.
To each well was then added 50 μL of 0.5% (v/v) Triton X-100 (Sigma) in 1×PBS and the plates placed on a rotary shaker for 5 min. The contents of each well were then transferred to an OptiPlate-96 (Packard) scintillation plate. To each well was then added 0.2 mL of Microscint-20 (Packard) and the wells counted on a TopCount (Packard).
[…] Counts per well were measured and percents of inhibition determined. […] Counts per well were measured and IC50s determined by linear regression.

[2] = target: T2, androgen receptor (adenovirus AdEasy+rAR in L929 cells) (Rattus norvegicus, UniProt P15207); assay: L929 Androgen Receptor Functional Assay, Adenovirus Transduction; assay type: cell-based; settings: for % Activity: L929 agonist testing
T2 construct: expressed in transfected cells
T2 sequence (P15207 1-902): T1 sequence (P15207 1-902)
Method: L929 cells were plated in 96-well plates at 20,000 cells per well, in DMEM/F12 (GIBCO) containing 10% (v/v) charcoal-treated fetal bovine serum (Hyclone) and lacking phenol red. The plates were then incubated overnight at 37° C. in 5% (v/v) humidified CO2.
Test compound dilutions were prepared in 100% (v/v) DMSO, if necessary. Each dilution was made to 1250× the final desired assay concentration.
First, 2 mL of DMEM/F12 lacking phenol red was pipetted into the wells of a 2-mL 96-well assay block. Next, 4 μL of the 1250× test compound dilutions were pipetted into each well of the assay block. The mixtures within the well were then carefully mixed by pipette.
In a 15 mL or 50 mL sterile centrifuge tube, a 2.5 nM (2.5×) dilution of R1881 (methyl-trienolone) in DMEM/F12 lacking phenol red was prepared.
In a second 15 mL or 50 mL centrifuge tube a solution containing an equal volume of DMEM to the first and an equal volume of 100% (v/v) DMSO to the volume of R1881 used in the first tube was prepared.
In a 15 mL or 50 mL sterile centrifuge tube, a dilution in DMEM/F12 of the adenovirus AdEasy+rAR at an moi of 1:500 per well was prepared.
The medium was removed from the 96-well plates by inversion and dried, inverted, very briefly. As soon as possible after medium removal, 40 μL of the diluted unlabeled test compound was added to each well, in duplicate. To each well designated for antagonist testing was added 40 μL of the 2.5 nM R1881 dilution to the wells for antagonist testing. To each well designated for agonist testing was added 40 μL of the DMSO dilution. Then 20 μL of the diluted adenovirus were added to all wells. The plates were incubated for 48 hours at 37° C. in 5% (v/v) humidified CO2.
To each well was added 100 μL of Steady-Glo luciferase assay substrate (Promega) and the plates were placed on a rotary shaker for 1 min. The plates were then incubated at room temperature in the dark for one hour. The contents of each well were then transferred to a white microtiter plate (Packard) and read on a Luminoskan Ascent (Thermo Lab Systems).
L929 AR percent activity was determined by testing dilutions of the test compound using a concentration of 3000 nM unless otherwise noted. L929 percent inhibition was determined by testing dilutions of the test compound using a concentration of 3000 nM. […] Luciferase activity per well were measured and EC50s and IC50s determined by linear regression.

[3] = test system: testosterone-enhanced ventral prostate and seminal vesicle weights in castrated male Sprague Dawley rats; assay: Ventral Prostate and Seminal Vesicle Weight In Vivo Assay; parameters: species or system rat; settings: immature castrated rats; once daily for five days, usually orally at 40 mg/kg, with testosterone propionate 2 mg/kg s.c.
Outline: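 Immature (~50 g) castrated Sprague Dawley rats dosed once daily for five days with compound (usually oral, 40 mg/kg, cyclodextrin or methylcellulose vehicle) plus testosterone propionate 2 mg/kg s.c. Wet ventral prostate and seminal vesicle weights taken on day six; activity judged by prostate weight or body-weight-adjusted % inhibition.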

COc1ccc(SCC(C)(O)c2cc3cc(Cl)c(C(F)(F)F)cc3[nH]2)cc1 (stereo not shown) [compound 131]
inhibition at 3 µM [1]: 84%
% Activity ([2]; 3000 nM): −5%
active / inactive (inhibition of testosterone-enhanced prostate weight) [3]: inactive

CCSCC(C)(O)c1[nH]c2cc(C(F)(F)F)c(C#N)cc2c1C (single isomer, unassigned) [Compound #234, 2-(2-Ethylsulfanyl-1-hydroxy-1-methyl-ethyl)-3-methyl-6-trifluoromethyl-1H-indole-5-carbonitrile]
% Inhibition [1]: 71%
% Activity ([2]; 3000 nM, 3 µM): −1%
active / inactive (inhibition of testosterone-enhanced prostate weight) [3]: inactive

CCSCC(O)(CC)c1cc2cc([N+](=O)[O-])c(C(F)(F)F)cc2[nH]1 (stereo not shown) [compound 169]
inhibition at 3 µM [1]: 90%
% Activity ([2]; 3000 nM): 2%
active / inactive (inhibition of testosterone-enhanced prostate weight) [3]: active

CCC(O)(CSCC(F)(F)F)c1cc2cc(Cl)c(C(F)(F)F)cc2[nH]1 (stereo not shown) [compound 192]
inhibition at 3 µM [1]: 86%
% Activity ([2]; 3000 nM): 8%
active / inactive (inhibition of testosterone-enhanced prostate weight) [3]: active

CSCC(C)(O)c1cc2cc([N+](=O)[O-])c(C(F)(F)F)cc2[nH]1 (stereo not shown) [compound 139]
% Inhibition [1]: 97%
inhibition at 3 µM [1]: 94%
% Activity ([2]; 3000 nM, 3 µM): 0% and 1%
active / inactive (inhibition of testosterone-enhanced prostate weight) [3]: active

CCSCC(C)(O)c1cc2cc(F)c(Cl)cc2[nH]1 (racemic) [compound 206]
% Inhibition [1]: −40%
% Activity ([2]; 3000 nM): 5%
active / inactive (inhibition of testosterone-enhanced prostate weight) [3]: active

CC(O)(CSCC(F)(F)F)c1[nH]c2cc(C(F)(F)F)c([N+](=O)[O-])cc2c1I (stereo not shown) [compound 213]
inhibition at 3 µM [1]: 71%
% Activity ([2]; @ 8000 nM): −1 @ 8000 nM %
active / inactive (inhibition of testosterone-enhanced prostate weight) [3]: active

CCS(=O)(=O)CC(C)(O)c1cc2cc([N+](=O)[O-])c(C(F)(F)F)cc2[nH]1 (stereo not shown) [compound 143]
inhibition at 3 µM [1]: 68%
% Activity ([2]; 3000 nM): 0%
active / inactive (inhibition of testosterone-enhanced prostate weight) [3]: active

CCC(O)(CS(=O)(=O)CC(F)(F)F)c1[nH]c2cc(C(F)(F)F)c([N+](=O)[O-])cc2c1Cl (stereo not shown) [compound 199]
inhibition at 3 µM [1]: 82%
% Activity ([2]; 3000 nM): 2%
active / inactive (inhibition of testosterone-enhanced prostate weight) [3]: inactive

CCSCC(C)(O)c1cc2cc(C#N)c(C(F)(F)F)cc2[nH]1 (single isomer, unassigned) [Compound #217, 2-(2-Ethylsulfanyl-1-hydroxy-1-methyl-ethyl)-6-trifluoromethyl-1H-indole-5-carbonitrile]
% Inhibition [1]: 38% and 69%
inhibition at 3 µM ([2]; L929, L929 antagonist testing with R1881, 3000 nM): 87%
% Activity ([2]; 3000 nM): 5%
% Activity ([2]; @ 8000 nM): 0 @ 8000 nM %
active / inactive (inhibition of testosterone-enhanced prostate weight) [3]: active

CCS(=O)(=O)CC(C)(O)c1cc2cc(C#N)c(C(F)(F)F)cc2[nH]1 (single isomer, unassigned) [Compound #222, 2-(2-Ethanesulfonyl-1-hydroxy-1-methyl-ethyl)-6-trifluoromethyl-1H-indole-5-carbonitrile]
inhibition at 3 µM [1]: 42%
% Activity ([2]; @ 8000 nM): 0 @ 8000 nM %
active / inactive (inhibition of testosterone-enhanced prostate weight) [3]: active

CC(O)(CSCC(F)(F)F)c1cc2cc([N+](=O)[O-])c(C(F)(F)F)cc2[nH]1 (stereo not shown) [compound 171]
% Inhibition [1]: 94%
inhibition at 3 µM [1]: 92%
% Activity ([2]; 3000 nM, 3 µM): 11%
% Activity ([2]; @ 8000 nM): −1 @ 8000 nM %
active / inactive (inhibition of testosterone-enhanced prostate weight) [3]: active

CC(O)(CCS(C)(=O)=O)c1cc2cc([N+](=O)[O-])c(C(F)(F)F)cc2[nH]1 (stereo not shown) [compound 49]
inhibition at 3 µM [1]: 30%
% Activity ([2]; 3000 nM): 2%
active / inactive (inhibition of testosterone-enhanced prostate weight) [3]: inactive

CSCC(C)(O)c1cc2cc(C#N)c(C(F)(F)F)cc2[nH]1 (stereo not shown) [compound 136]
inhibition at 3 µM [1]: 4.8%
% Activity ([2]; 3000 nM): 0%
active / inactive (inhibition of testosterone-enhanced prostate weight) [3]: active

CCSCC(C)(O)c1cc2cc(C#N)c(Cl)cc2[nH]1 (stereo not shown) [compound 225]
inhibition at 3 µM [1]: 82%
% Activity ([2]; 3000 nM): 1%

CC(O)(CS(C)(=O)=O)c1cc2cc(Cl)c(C(F)(F)F)cc2n1S(C)(=O)=O (stereo not shown) [compound 137]
inhibition at 3 µM [1]: 73%
% Activity ([2]; 3000 nM): 0%

CC(O)(CSc1ccc(C(=O)O)cc1)c1cc2cc(Cl)c(C(F)(F)F)cc2n1S(C)(=O)=O (stereo not shown) [compound 132]
inhibition at 3 µM [1]: 8.7%
% Activity ([2]; 3000 nM): −5%

CCSCC(C)(O)c1cc2cc([N+](=O)[O-])c(C(F)(F)F)cc2[nH]1 (single isomer, unassigned) [compound 150]
% Inhibition [1]: 81% and 74%
% Activity ([2]; @ 8000 nM): 0 @ 8000 nM %

CCSCC(C)(O)c1cc2cc([N+](=O)[O-])c(C(F)(F)F)cc2[nH]1 (single isomer, unassigned) [compound 149]
% Inhibition [1]: 63% and 78%
% Activity ([2]; 3000 nM, 3 µM): 2%

CC(O)(CS(=O)(=O)c1ccc(O)cc1)c1cc2cc(Cl)c(C(F)(F)F)cc2[nH]1 (stereo not shown) [compound 121]
inhibition at 3 µM [1]: 72%
% Activity ([2]; 3000 nM): −4%

COc1ccc(S(=O)(=O)CC(C)(O)c2cc3cc(Cl)c(C(F)(F)F)cc3n2S(C)(=O)=O)cc1 (stereo not shown) [compound 128]
inhibition at 3 µM [1]: 21%
% Activity ([2]; 3000 nM): −4%

CCSCC(C)(O)c1cc2cc(Cl)ccc2n1S(C)(=O)=O (racemic) [compound 154]
% Inhibition [1]: 50%
% Activity ([2]; 3000 nM): 2%
% Inhibition ([2]; L929 antagonist testing with R1881, 3000 nM): 7%
